Experimental data: US20090253634A1, “Methods and Compositions for the Treatment of Gastrointestinal Disorders” (MICROBIA, INC., priority 2005, published 2009)
Bridge positions count the residues as written; N and C are the ends. Peptide text beside a SMILES is read from it.

How the values were obtained:
gastrointestinal transit = assay: rat gastrointestinal transit (GIT) assay; assay type: in vivo, CD rats
Experimental: In order to determine whether the peptides increase the rate of gastrointestinal transit, the peptides and controls were tested using a murine gastrointestinal transit (GIT) assay (Moon et al. Infection and Immunity 25:127, 1979). In this assay, charcoal, which can be readily visualized in the gastrointestinal tract is administered to mice after the administration of a test compound. The distance traveled by the charcoal is measured and expressed as a percentage of the total length of the […].
Mice were fasted with free access to water for 12 to 16 hours before the treatment with peptide or control buffer. The peptides were orally administered at 1 μg/kg-1 mg/kg of peptide in buffer ([…] pH 7.5) 7 minutes before being given an oral dose of 5% Activated Carbon (Aldrich 242276-250G). Control mice were administered buffer only before being given a dose of Activated Carbon. After 15 minutes, the mice were sacrificed and their intestines from the stomach to the cecum were dissected. The total length of the intestine as well as the distance traveled from the stomach to the charcoal front was measured for each animal and the results are expressed as the percent of the total length of the intestine traveled by the charcoal front. All results are reported as the average of 10 mice±standard deviation. […] P-values are calculated using a two-sided T-Test assuming unequal variances. […]

[1] = tested on: abdominal EMG response to colorectal distension; assay: colorectal distension in WT and GC-C KO mice, basal and TNBS-induced; assay type: in vivo; details: for TNBS induced hypersensitivity to CRD: oral 0.01 μg/kg
Experimental: TNBS induced visceral hypersensitivity was assessed in WT and GC-C KO mice. Two groups (WT and GC-C KO) of male mice (22-25g) were surgically prepared for electromyographic (EMG) recordings. Three electrodes were implanted in the striated muscles of the abdomen for EMG recording of abdominal contractions. Colorectal distension (CRD) was performed with a balloon inflated by 10 s steps of 0.02 ml from 0 to 0.12 ml. Under basal conditions mice were submitted to control CRD (time 0) followed by oral administration of SEQ ID NO:3 (0.01 and 0.3 μg/kg) or vehicle only (distilled water, 1 ml) at 3 hours. One hour post dosing the CRD procedure was repeated. Abdominal EMG contractile response to colorectal distension in basal conditions in both WT and GC-C KO mice (12-14 mice per group) was determined in the absence of vehicle and SEQ ID NO:3, and the mean +/− standard error of the mean (SEM) is graplhically depicted in FIG. 7c.
For TNBS induced visceral hypersensitivity conditions, mice were submitted to control CRD (time 0) and TNBS (20 mg/kg) was administered at 3 days. Three days post intracolonic TNBS-induction animals were orally admistered SEQ ID NO:3 (0.01 and 0.3 μg/kg) or vehicle (distilled water, 1 ml) 1 hour before CRD. The effect of SEQ ID NO:3 (0.01 μg/kg) on abdominal response to colorectal distension after TNBS in WT and GC-C KO mice (12-14 per group) at a volume distension of […] was determined and the mean +/− standard error of the mean (SEM) is graphically depicted in FIG. 7d.

aminopeptidase = target: T1, aminopeptidase (Sus scrofa, UniProt P15145); assay: in vitro proteolytic stability: aminopeptidase; assay type: in vitro ADME; details: 37° C., up to 24 h
T1 construct: purchased Roche 102768
T1 sequence (P15145 1-963): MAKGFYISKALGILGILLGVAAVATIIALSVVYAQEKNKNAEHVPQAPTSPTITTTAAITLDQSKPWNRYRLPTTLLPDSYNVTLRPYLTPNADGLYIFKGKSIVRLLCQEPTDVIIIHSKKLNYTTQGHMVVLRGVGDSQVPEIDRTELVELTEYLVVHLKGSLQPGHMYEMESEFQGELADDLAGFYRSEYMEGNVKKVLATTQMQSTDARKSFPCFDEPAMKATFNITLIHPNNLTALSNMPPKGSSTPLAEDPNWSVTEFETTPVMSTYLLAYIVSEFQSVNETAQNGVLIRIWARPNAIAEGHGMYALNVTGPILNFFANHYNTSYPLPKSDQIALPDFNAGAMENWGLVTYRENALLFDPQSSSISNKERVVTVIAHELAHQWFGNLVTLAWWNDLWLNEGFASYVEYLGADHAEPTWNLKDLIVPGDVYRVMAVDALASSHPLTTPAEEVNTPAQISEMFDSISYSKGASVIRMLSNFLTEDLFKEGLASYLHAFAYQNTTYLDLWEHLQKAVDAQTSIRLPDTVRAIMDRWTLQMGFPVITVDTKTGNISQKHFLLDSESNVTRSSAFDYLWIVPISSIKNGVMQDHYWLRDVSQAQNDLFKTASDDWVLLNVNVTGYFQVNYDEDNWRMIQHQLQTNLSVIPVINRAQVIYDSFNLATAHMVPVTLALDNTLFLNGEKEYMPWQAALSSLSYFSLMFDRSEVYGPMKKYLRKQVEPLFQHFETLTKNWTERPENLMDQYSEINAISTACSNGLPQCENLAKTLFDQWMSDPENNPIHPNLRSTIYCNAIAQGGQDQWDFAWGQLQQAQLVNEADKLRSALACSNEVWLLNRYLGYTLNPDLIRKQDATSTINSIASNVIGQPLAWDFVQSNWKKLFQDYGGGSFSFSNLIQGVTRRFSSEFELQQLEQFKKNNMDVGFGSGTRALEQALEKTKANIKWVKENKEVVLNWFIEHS
Experimental: All samples were analyzed by LC/MS

PBQ-induced writhing = assay: phenylbenzoquinone (PBQ)-induced writhing model

C[C@@H]1NC(=O)[C@@H]2CCCN2C(=O)[C@H](CC(N)=O)NC(=O)[C@@H]2CSSC[C@H](N)C(=O)N[C@H]3CSSC[C@H](NC1=O)C(=O)N[C@@H]([C@@H](C)O)C(=O)NCC(=O)N[C@H](C(=O)N[C@@H](Cc1ccc(O)cc1)C(=O)O)CSSC[C@H](NC(=O)[C@H](Cc1ccc(O)cc1)NC(=O)[C@H](CCC(=O)O)NC3=O)C(=O)N2 [SEQ ID NO:3] (H-CCEYCCNPACTGCY-OH; disulfide 1-6, 2-10, 5-13; N-terminus and C-terminus assumed)
intestinal transit, dose dependence (gastrointestinal transit; female rats, similar effects in male rats, FIG. 4e): increases in a dose dependent manner | intestinal transit (gastrointestinal transit; rat GIT assay, FIG. 4d): intestinal transit increases | TNBS induced hypersensitivity to CRD ([1]; GC-C KO mice): not observed | TNBS induced hypersensitivity to CRD ([1]; WT mice, volume distension of 0.8 ml): reduces the TNBS induced hypersensitivity to CRD | EMG response to colorectal distension ([1]; basal conditions, WT mice, oral 0.01 and 0.3 μg/kg): decreased the EMG response to colorectal distension | Cleavage of SEQ ID NO: 3 by proteolytic substance (aminopeptidase): not detectable | writhings versus vehicle control (PBQ-induced writhing; 2.5 mg/kg dose, oral): Significant reductions in writhings | antinociceptive effect compared with indomethacin (PBQ-induced writhing; PBQ writhing assay): antinociceptive effects in this visceral pain model comparable to the intermediate doses of indomethacin
